Test results from patent publication US7109193B2, “Tricyclic diazepines tocolytic oxytocin receptor antagonists” (Wyeth, priority 2001, dated 2006).

Target: T1, human vasopressin V1a receptor subtype (Homo sapiens, UniProt P37288)
T1 construct: host or cells: CHO cells (pZeoSV vector for the Thibonnier line)
Experiment: Vasopressin binding in Chinese Hamster Ovary cell membranes expressing human vasopressin V1a subtype receptors
Details: 100 nM, CHO cell membranes, [3H]Manning ligand, values without parentheses
Summary of the method: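 Membranes from CHO cells expressing human V1a receptor were incubated with [3H]Manning ligand (added as 20 μL of 8 nM) in pH 7.4 Tris buffer with MgCl2, BSA and protease inhibitors, 60 min at room temperature. Bound radioactivity was counted after filtration; values are percent inhibition at a stated concentration or IC50.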

T1 sequence (P37288 whole entry): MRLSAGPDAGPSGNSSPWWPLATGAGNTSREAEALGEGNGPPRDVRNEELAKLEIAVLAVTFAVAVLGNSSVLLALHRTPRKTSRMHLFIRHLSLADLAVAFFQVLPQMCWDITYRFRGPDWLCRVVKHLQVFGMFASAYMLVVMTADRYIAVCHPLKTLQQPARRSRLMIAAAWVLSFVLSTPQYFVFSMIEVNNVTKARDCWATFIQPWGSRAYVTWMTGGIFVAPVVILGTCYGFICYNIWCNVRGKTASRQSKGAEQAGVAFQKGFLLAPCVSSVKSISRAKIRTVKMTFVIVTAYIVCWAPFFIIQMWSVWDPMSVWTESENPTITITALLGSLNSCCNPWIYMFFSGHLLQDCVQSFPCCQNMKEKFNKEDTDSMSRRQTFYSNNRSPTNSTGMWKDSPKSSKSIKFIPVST

In order of rising inhibition at 0.1 µM:
1. COc1cccc(-c2cc(OC)c(C(=O)N3Cc4ccc(C(=O)N5CCN(CCN(C)C)CC5)n4Cc4ccccc43)cc2Cl)c1 [Example 202, {10-[(6-Chloro-3,3′-dimethoxy[1,1′-biphenyl]-4-yl)carbonyl]-10,11-dihydro-5H-pyrrolo[2,1-c][1,4]benzodiazepin-3-yl}{4-[2-(dimethylamino)ethyl]-1-piperazinyl}methanone]  2%
2. COc1cc(-c2ccccc2C)c(Cl)cc1C(=O)N1Cc2ccc(C(=O)N3CCN(C(C)C)CC3)n2Cc2ccccc21 [Example 238, {10-[(6-Chloro-3-methoxy-2′-methyl[1,1′-biphenyl]-4-yl)carbonyl]-10,11-dihydro-5H -pyrrolo[2,1-c][1,4]benzodiazepin-3-yl}(4-isopropyl-1-piperazinyl)methanone]  3%
3. O=C(c1ccc2n1Cc1ccccc1N(C(=O)c1ccc(-c3cccc4ccccc34)cc1Cl)C2)N1CCN(CCN2CCOCC2)CC1 [Example 215, {10-[2-Chloro-4-(1-naphthyl)benzoyl]-10,11-dihydro-5H-pyrrolo[2,1-c][1,4]benzodiazepin-3-yl}{4-[2-(4-morpholinyl)ethyl]-1-piperazinyl}methanone]  5%
4. O=C(NCCN1CCCCC1)c1ccc2n1Cc1ccccc1N(C(=O)c1ccc(-c3cccc4ccccc34)cc1Cl)C2 [Example 160, 10-[2-Chloro-4-(1-naphthyl)benzoyl]-N-[2-(1-piperidinyl)ethyl]-10,11-dihydro-5H-pyrrolo[2,1-c][1,4]benzodiazepine-3-carboxamide]  6%
5. C=CCN1CCN(C(=O)c2ccc3n2Cc2ccccc2N(C(=O)c2ccc(-c4cccc5ccccc45)cc2Cl)C3)CC1 [Example 229, (4-Allyl-1-piperazinyl){10-[2-chloro-4-(1-naphthyl)benzoyl]-10,11-dihydro-5H-pyrrolo[2,1-c][1,4]benzodiazepin-3-yl}methanone]  8%
6. Cc1cc(C(=O)N2Cc3ccc(C(=O)N4CCN(CCN5CCOCC5)CC4)n3Cc3ccccc32)ccc1-c1ccccc1C(F)(F)F [Example 216, (10-{[2-Methyl-2′-(trifluoromethyl)[1,1′-biphenyl]-4-yl]carbonyl}-10,11-dihydro-5H -pyrrolo[2,1-c][1,4]benzodiazepin-3-yl){4-[2-(4-morpholinyl)ethyl]-1-piperazinyl}methanone]  10%
7. C=CCN1CCN(C(=O)c2ccc3n2Cc2ccccc2N(C(=O)c2ccc(-c4cccc(OC)c4)c(C)c2)C3)CC1 [Example 223, (4-Allyl-1-piperazinyl){10-[(3′-methoxy-2-methyl[1,1′-biphenyl]-4-yl)carbonyl]-10,11-dihydro-5H-pyrrolo[2,1-c][1,4]benzodiazepin-3-yl}methanone]  12%
8. COc1ccccc1-c1ccc(C(=O)N2Cc3ccc(C(=O)N4CCN(C(C)C)CC4)n3Cc3ccccc32)cc1C [Example 232, (4-Isopropyl-1-piperazinyl){10-[(2′-methoxy-2-methyl[1,1′-biphenyl]-4-yl)carbonyl]-10,11-dihydro-5H-pyrrolo[2,1-c][1,4]benzodiazepin-3-yl}methanone]  13%
9. COc1cc(C(=O)N2Cc3ccc(C(=O)N(C)C4CCN(C)CC4)n3Cc3ccccc32)ccc1-c1cccc2ccccc12 [Example 182, 10-[3-Methoxy-4-(1-naphthyl)benzoyl]-N-methyl-N-(1-methyl-4-piperidinyl)-10,11-dihydro-5H-pyrrolo[2,1-c][1,4]benzodiazepine-3-carboxamide]  14%
10. C=CCN1CCN(C(=O)c2ccc3n2Cc2ccccc2N(C(=O)c2ccc(-c4cccc(OC)c4)c(OC)c2)C3)CC1 [Example 228, (4-Allyl-1-piperazinyl){10-[(2,3′-dimethoxy[1,1′-biphenyl]-4-yl)carbonyl]-10,11-dihydro-5H -pyrrolo[2,1-c][1,4]benzodiazepin-3-yl}methanone]  22%
11. Cc1cc(C(=O)N2Cc3ccc(C(=O)N(C)C4CCN(C)C4)n3Cc3ccccc32)ccc1-c1ccccc1C(F)(F)F (stereo not shown) [Example 194, N-Methyl-N-(1-methyl-3-pyrrolidinyl)-10-{[2-methyl-2′-(trifluoromethyl)[1,1′-biphenyl]-4-yl]carbonyl}-10,11-dihydro-5H-pyrrolo[2,1-c][1,4]benzodiazepine-3-carboxamide]  23%
12. COc1ccccc1-c1ccc(C(=O)N2Cc3ccc(C(=O)NCCC4CCCN4C)n3Cc3ccccc32)cc1 (stereo not shown) [Example 165, 10-[(2′-Methoxy[1,1′-biphenyl]-4-yl)carbonyl]-N-[2-(1-methyl-2-pyrrolidinyl)ethyl]-10,11-dihydro-5H-pyrrolo[2,1-c][1,4]benzodiazepine-3-carboxamide]  24%
13. COc1cccc(-c2ccc(C(=O)N3Cc4ccc(C(=O)N(C)C5CCN(C)CC5)n4Cc4ccccc43)cc2C)c1 [Example 176, 10-[(3′-Methoxy-2-methyl[1,1′-biphenyl]-4-yl)carbonyl]-N-methyl-N-(1-methyl-4-piperidinyl)-10,11-dihydro-5H-pyrrolo[2,1-c][1,4]benzodiazepine-3-carboxamide]  27%
14. C=CCN1CCN(C(=O)c2ccc3n2Cc2ccccc2N(C(=O)c2ccc(-c4ccccc4C)c(OC)c2)C3)CC1 [Example 225, (4-Allyl-1-piperazinyl){10-[(2-methoxy-2′-methyl[1,1′-biphenyl]-4-yl)carbonyl]-10,11-dihydro-5H-pyrrolo[2,1-c][1,4]benzodiazepin-3-yl}methanone]  35%
15. COc1cccc(-c2cc(OC)c(C(=O)N3Cc4ccc(C(=O)N(C)C5CCN(C)C5)n4Cc4ccccc43)cc2Cl)c1 (stereo not shown) [Example 191, 10-[(6-Chloro-3,3′-dimethoxy[1,1′-biphenyl]-4-yl)carbonyl]-N-methyl-N-(1-methyl-3-pyrrolidinyl)-10,11-dihydro-5H-pyrrolo[2,1-c][1,4]benzodiazepine-3-carboxamide]  41%
16. COc1cccc(-c2ccc(C(=O)N3Cc4ccc(C(=O)N5CCN(CCN6CCOCC6)CC5)n4Cc4ccccc43)cc2OC)c1 [Example 211, {10-[(2,3′-Dimethoxy[1,1′-biphenyl]-4-yl)carbonyl]-10,11-dihydro-5H-pyrrolo[2,1-c][1,4]benzodiazepin-3-yl}{4-[2-(4-morpholinyl)ethyl]-1-piperazinyl}methanone]  45%
17. Cc1ccccc1-c1ccc(C(=O)N2Cc3ccc(C(=O)N4CCN(CCN5CCOCC5)CC4)n3Cc3ccccc32)cc1C [Example 218, {10-[(2,2′-Dimethyl[1,1′-biphenyl]-4-yl)carbonyl]-10,11-dihydro-5H-pyrrolo[2,1-c][1,4]benzodiazepin-3-yl}{4-[2-(4-morpholinyl)ethyl]-1-piperazinyl}methanone]  45%
18. COc1cccc(-c2ccc(C(=O)N3Cc4ccc(C(=O)N(C)C5CCN(C)C5)n4Cc4ccccc43)cc2C)c1 (stereo not shown) [Example 186, 10-[(3′-Methoxy-2-methyl[1,1′-biphenyl]-4-yl)carbonyl]-N-methyl-N-(1-methyl-3-pyrrolidinyl)-10,11-dihydro-5H-pyrrolo[2,1-c][1,4]benzodiazepine-3-carboxamide]  53%
19. Cc1ccccc1-c1ccc(C(=O)N2Cc3ccc(C(=O)N(C)C4CCN(C)CC4)n3Cc3ccccc32)cc1 [Example 178, N-Methyl-10-[(2′-methyl[1,1′-biphenyl]-4-yl)carbonyl]-N-(1-methyl-4-piperidinyl)-10,11-dihydro-5H-pyrrolo[2,1-c][1,4]benzodiazepine-3-carboxamide]  79%
